Measurements published in patent publication US20050222247A1, “Chroman derivatives” (Bayer HealthCare AG, priority 2003, published 2005).
Where a name gives a salt, the structure may show the parent alone.

Assays:
[1] = molecular target: T1, β3-adrenoceptor (Homo sapiens, UniProt P13945); experiment: Measurement of cAMP production in SK-N-MC cells (Assay 1 - Method B); assay type: cell-based; settings: 1 μM Atenolol, read-out: Beta-3 EC50
T1 construct: which endogenously express β1- and β3-adrenoceptors; endogenous in cells; host or cells: SK-N-MC human neuroblastoma cells
Experimental: Measurement of cAMP production in SK-N-MC Cells (Assay 1—Method B)
Human neuroblastoma cell line, SK-N-MC, which endogenously express […] were utilized. In the presence or absence of 1 μM of β1-adrenoceptor selective antagonist, Atenolol, the effects of the compounds on cAMP levels were examined. SK-N-MC cells were suspended in Hank's balanced salt solution containing 20 mM Hepes, 0.1% BSA, 1 mM L-ascorbic acid sodium salt, 250 nM IBMX, and 1 μM Atenolol (pH 7.4). After incubating at 37° C. for 1 h, the compound of the present invention was added and cells were further incubated for 30 min. Total cAMP in the well was measured by cAMP ELISA kit (Tropix, Bedford, Mass.). Effect of the compound on the cAMP level was determined at 8 different concentrations from 1 pM to 10 μM. The concentration to induce 50% of maximum response, 50% effective concentration (EC50), was calculated.

[2] = molecular target: T2, human β2-adrenoceptor (Homo sapiens, UniProt P07550); experiment: Agonistic activity, calcium influx in CHO cells (Assay 2 - Method B); assay type: cell-based; settings: agonist, hβ2-CHO cells, read-out: Beta-2 EC50
T2 construct: expressed in transfected cells; host or cells: Chinese hamster ovary (CHO) cells (hβ2-CHO)
Source text: (§1) Measurement of Agonistic Activity for Human β1-Adrenoceptor or Human β2-Adrenoceptor (Assay 2—Method B)
(§2) The agonistic activity of the compound to human β2-adrenoceptor was examined by measurement of calcium influx in Chinese hamster ovary (CHO) cells, in which recombinant human β2-adrenoceptor was expressed (hβ2-CHO cells). The cells were cultivated in DMEM F12 medium. Prior to measurement, the cells were loaded with Coelenterazine (1:2000) in Ca-Tyrode. The Ca-influx was directly measured for 45 sec (Hamamatsu FluoroBox fluorescence detector). The effect of the compound on calcium influx was determined at 8 different concentrations from 1 pM to 10 μM. The concentration to induce 50% of maximum response, 50% effective concentration (EC50), was calculated. Experiments with the same methods were performed in CHO cells expressing recombinant human β1-adrenoceptor to examine the effects of the compounds on human β1-adrenoceptor.

[3] = molecular target: T3, human β1-adrenoceptor (Homo sapiens, UniProt P08588); experiment: as above; assay type: cell-based; settings: agonist, CHO cells expressing recombinant human β1-adrenoceptor, read-out: Beta-1 EC50
T3 construct: expressed in transfected cells; host or cells: Chinese hamster ovary (CHO) cells
Source text: as §1, §2

[4] = molecular target: T1, β3-adrenoceptor; experiment: Measurement of cAMP production in SK-N-MC cells (Assay 1 - Method A); assay type: cell-based; settings: 1 μM CGP20712A, read-out: Beta-3 EC50
Experimental: Measurement of cAMP Production in SK-N-MC Cells (Assay 1—Method A)
Human neuroblastoma cell line, SK-N-MC, which endogenously express β1- and β3-adrenoceptors was utilized. In the presence of 1 μM of […] selective antagonist, CGP20712A, the effects of the compounds on cAMP levels were examined. SK-N-MC cells were suspended in Hank's balanced salt solution containing 20 mM Hepes, 0.1% BSA, 1 mM L-ascorbic acid sodium salt, 250 nM IBMX, and 1 μM CGP20712A (pH 7.4). After incubating at 37° C. for 30 min, the compound of the present invention was added and cells were further incubated for 30 min. Total cAMP in the well was measured by cAMP ELISA kit (Tropix, Bedford, Mass.). Effect of the compound on the cAMP level was determined at 6 different concentrations from 0.1 nM to 10 μM. The concentration to induce 50% of maximum response, 50% effective concentration (EC50), was calculated. In addition, intrinsic activity (IA) was determined as a maximum response induced by each compound, and IA was expressed as relative value compared with a response induced by 10 μM isoproterenol (i.e. cAMP level increased by 10 μM isoproterenol was taken as 100%).

[5] = molecular target: T2, human β2-adrenoceptor; experiment: Agonistic activity, cAMP levels in CHO cells (Assay 2 - Method A); assay type: cell-based; settings: agonist, hβ2-CHO cells, read-out: Beta-2 EC50
Experimental: (§3) Measurement of Agonistic Activity for Human β1-Adrenoceptor Or Human β2-Adrenoceptor (Assay 2—Method A)
(§4) The agonistic activity of the compound to human […] was examined by measurement of cAMP levels in Chinese hamster ovary (CHO) cells, in which recombinant human […] was expressed (hβ2-CHO cells). The hβ2-CHO cells were suspended in Hank's balanced salt solution containing 20 mM Hepes, 0.1% BSA, 1 mM L-ascorbic acid sodium salt, and 250 nM IBMX (pH 7.4). After incubating at 37° C. for 30 min, the compound of the present invention was added and cells were further incubated for 30 min. Total cAMP in the well was measured by cAMP ELISA kit (Tropix, Bedford, Mass.). The effect of the compound on the cAMP level was determined at 6 different concentrations from 0.1 nM to 10 μM. The concentration to induce 50% of maximum response, 50% effective concentration (EC50), was calculated. In addition, intrinsic activity (IA) was determined as a maximum response induced by each compound, and IA was expressed as relative value compared with a response induced by 10 μM isoproterenol (i.e. cAMP level increased by 10 μM isoproterenol was taken as 100%). Experiments with the same methods were performed in CHO cells expressing recombinant human β1-adrenoceptor to examine the effects of the compounds on human β1-adrenoceptor.

[6] = molecular target: T2, human β2-adrenoceptor; experiment: Antagonistic activity, isoproterenol-induced cAMP production in CHO cells (Assay 3); assay type: cell-based; settings: antagonist; inhibition of cAMP production induced by 100 nM isoproterenol, hβ2-CHO cells; read-out: Beta-2 IC50
Experimental: (§5) Measurement of Antagonistic Activity for Human […] (Assay 3)
(§6) The antagonistic activity of the compound to human β2-adrenoceptor was examined by measurement of cAMP levels in the hβ2-CHO cells stimulated by isoproterenol. The hβ2-CHO cells were suspended in Hank's balanced salt solution containing 20 mM Hepes, 0.1% BSA, 1 mM L-ascorbic acid sodium salt, and 250 nM IBMX (pH 7.4). The cells were stimulated by non-selective β-adrenoceptor agonist isoproterenol at 100 nM to increase cAMP levels. After incubating at 37° C. for 30 min, the compound of the present invention was added and cells were further incubated for 30 min. Total cAMP in the well was measured by cAMP ELISA kit (Tropix, Bedford, Mass.). Inhibitory effect of the compound on the isoproterenol-induced cAMP production was determined at 6 different concentrations from 0.1 nM to 10 μM. The concentration to induce 50% of inhibitory response, 50% inhibitory concentration (IC50), was calculated. Experiments with the same methods were performed in CHO cells expressing recombinant human β1-adrenoceptor to examine the effects of the compounds on human β1-adrenoceptor.

[7] = molecular target: T3, human β1-adrenoceptor; experiment: as above; assay type: cell-based; settings: antagonist; inhibition of cAMP production induced by 100 nM isoproterenol, CHO cells expressing human β1-adrenoceptor; read-out: Beta-1 IC50
Experimental: as §5, §6

[8] = molecular target: T3, human β1-adrenoceptor; experiment: Agonistic activity, cAMP levels in CHO cells (Assay 2 - Method A); assay type: cell-based; settings: agonist, CHO cells expressing recombinant human β1-adrenoceptor, read-out: Beta-1 EC50
Experimental: as §3, §4

T2 sequence (P07550 whole entry): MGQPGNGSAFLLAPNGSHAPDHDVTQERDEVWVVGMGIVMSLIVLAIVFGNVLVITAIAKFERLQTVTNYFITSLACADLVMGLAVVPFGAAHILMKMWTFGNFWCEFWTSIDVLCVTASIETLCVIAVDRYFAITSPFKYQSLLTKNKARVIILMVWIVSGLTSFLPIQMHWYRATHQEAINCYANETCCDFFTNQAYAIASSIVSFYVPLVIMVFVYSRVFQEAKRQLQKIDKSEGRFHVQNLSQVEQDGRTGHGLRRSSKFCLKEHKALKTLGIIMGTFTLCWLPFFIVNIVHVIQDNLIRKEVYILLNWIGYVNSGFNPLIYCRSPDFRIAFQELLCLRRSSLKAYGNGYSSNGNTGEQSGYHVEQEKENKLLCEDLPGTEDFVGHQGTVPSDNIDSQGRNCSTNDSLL
T3 sequence (P08588 whole entry): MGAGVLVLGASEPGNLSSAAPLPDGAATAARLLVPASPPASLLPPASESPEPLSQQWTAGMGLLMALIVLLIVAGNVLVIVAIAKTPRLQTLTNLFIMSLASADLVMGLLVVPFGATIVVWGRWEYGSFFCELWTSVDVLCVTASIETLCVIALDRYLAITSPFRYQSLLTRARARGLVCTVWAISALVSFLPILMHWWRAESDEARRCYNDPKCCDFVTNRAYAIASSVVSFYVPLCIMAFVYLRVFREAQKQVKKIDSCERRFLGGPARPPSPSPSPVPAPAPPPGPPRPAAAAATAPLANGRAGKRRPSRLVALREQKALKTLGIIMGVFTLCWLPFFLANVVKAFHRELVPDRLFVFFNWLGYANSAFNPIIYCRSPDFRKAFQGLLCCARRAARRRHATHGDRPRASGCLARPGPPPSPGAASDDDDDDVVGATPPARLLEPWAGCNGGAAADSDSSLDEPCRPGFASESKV
T1 sequence (P13945 whole entry): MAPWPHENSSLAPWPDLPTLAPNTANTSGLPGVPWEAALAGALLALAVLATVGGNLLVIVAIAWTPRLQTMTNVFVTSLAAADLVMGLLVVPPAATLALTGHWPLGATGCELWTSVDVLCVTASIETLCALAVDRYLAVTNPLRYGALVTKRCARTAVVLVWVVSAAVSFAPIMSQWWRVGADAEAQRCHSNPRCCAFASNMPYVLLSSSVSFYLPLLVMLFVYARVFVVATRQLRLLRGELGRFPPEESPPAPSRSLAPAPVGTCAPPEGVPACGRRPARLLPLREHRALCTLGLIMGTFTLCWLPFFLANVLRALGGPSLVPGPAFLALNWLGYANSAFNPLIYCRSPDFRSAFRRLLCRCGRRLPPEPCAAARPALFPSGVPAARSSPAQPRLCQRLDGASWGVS

Row | Compound | EC50 [4] | melting point | other results
1 | O=C(O)c1cc(F)ccc1Oc1ccc2c(c1)CC[C@H](CNC[C@H](O)COc1ccccc1)O2 [Example 44, 5-fluoro-2-{[(2R)-2-({[(2S)-2-hydroxy-3-phenoxypropyl]amino}methyl)-3,4-dihydro-2H-chromen-6-yl]oxy}benzoic Acid Hydrochloride] | – | – | EC50 [1]: 0.023 µM; EC50 [2]: > 10 µM; EC50 [3]: > 10 µM
2 | CN(c1ccc(C(=O)O)cc1)c1ccc2c(c1)CC[C@H](CNC[C@H](O)COc1ccccc1)O2 [Example 2, 4-[[(2R)-2-({[(2S)-2-hydroxy-3-phenoxypropyl]amino}methyl)-3,4-dihydro-2H-chromen-6-yl](methyl)amino]benzoic acid hydrochloride] | 0.014 µM | – | –
3 | COc1cc(Oc2ccc3c(c2)CC[C@H](CNC[C@H](O)COc2ccccc2)O3)c(C(=O)O)cc1OC [Example 54] | – | – | EC50 [2]: > 10 µM; EC50 [3]: 8 µM
4 | CC(C)(C)c1cc(C(=O)O)ccc1Oc1ccc2c(c1)CC[C@H](CNC[C@H](O)COc1ccccc1)O2 [Example 23] | – | – | EC50 [5]: > 10 µM
5 | COc1cc(C(=O)O)ccc1Oc1ccc2c(c1)CC[C@H](CNC[C@H](O)COc1ccccc1)O2 [Example 12] | 0.27 µM | – | –
6 | O=C(O)c1cccc(Nc2ccc3c(c2)CC[C@H](CNC[C@H](O)COc2ccccc2)O3)c1 [Example 11] | – | – | EC50 [1]: 0.186 µM
7 | O=C(O)c1ccccc1Oc1ccc2c(c1)CC[C@H](CNC[C@H](O)COc1ccccc1F)O2 [Example 36] | – | 209 °C | –
8 | O=C(O)c1ccccc1Oc1ccc2c(c1)CC[C@H](CNC[C@H](O)COc1ccccc1Cl)O2 [Example 39] | – | 230 °C | –
9 | N#Cc1ccc(Nc2ccc3c(c2)CC[C@H](CNC[C@H](O)COc2ccccc2)O3)cc1 [Example 29] | 0.16 µM | – | –
10 | O=C(O)c1ccccc1Oc1ccc2c(c1)CC[C@H](CNC[C@H](O)COc1ccccc1C(F)(F)F)O2 [Example 38] | – | 162 °C | –
11 | O=C(O)c1ccccc1Oc1ccc2c(c1)CC[C@H](CNC[C@H](O)COc1ccc(F)cc1F)O2 [Example 40] | – | 138 to 142 °C | –
12 | O=C(O)c1ccccc1Oc1ccc2c(c1)CC[C@H](CNC[C@H](O)COc1ccccc1)O2 [Example 1, 2-{[(2R)-2-({[(2S)-2-hydroxy-3-phenoxypropyl]amino}methyl)-3,4-dihydro-2H-chromen-6-yl]oxy}benzoic Acid] | 0.026 µM | – | IC50 [6]: 0.93 µM; IC50 [7]: > 10 µM; EC50 [5]: > 10 µM; EC50 [8]: > 10 µM
13 | O=C(O)c1ccccc1Oc1ccc2c(c1)CC[C@H](CNC[C@H](O)COc1ccccc1-c1ccccc1)O2 [Example 37] | 0.23 µM | 175 °C | –
14 | O=C(O)c1ccccc1Oc1ccc2c(c1)CC[C@H](CNC[C@H](O)COc1c(F)cccc1F)O2 [Example 41] | – | 196 to 198 °C | –
15 | O=C(O)c1ccccc1Oc1ccc2c(c1)CC[C@H](CNC[C@H](O)COc1ccc(F)c(Cl)c1)O2 [Example 43] | – | 196 to 199 °C | –
16 | O=C(O)c1ccccc1Oc1ccc2c(c1)CC[C@H](CNC[C@H](O)COc1ccccc1N1CCOCC1)O2 [Example 42] | – | 173 to 176 °C | –
